Calls of active or inactive are those of the source. No cut-off for these calls is given here.
Assays:
[1] = Binding affinity to ATT-bulge-DNA by surface plasmon resonance based assay
[2] = Stimulation of DNA triplet repeat slippage synthesis using p33-labeled (ATT)3 and unlabeled (AAT)5 template assessed as number of base pairs
[3] = Binding affinity to double strand DNA by surface plasmon resonance based assay
[4] = Stimulation of DNA triplet repeat slippage synthesis using p33-labeled (ATT)3 and unlabeled (AAT)5 template at 100 uM in presence of doxorubicin
[5] = Stimulation of DNA triplet repeat slippage synthesis using p33-labeled (ATT)3 and unlabeled (AAT)5 template assessed as number of base pairs at 400 uM
[6] = Stimulation of DNA triplet repeat slippage synthesis using p33-labeled (ATT)3 and unlabeled (AAT)5 template assessed as number of base pairs at 200 uM
[7] = Stimulation of DNA triplet repeat slippage synthesis using p33-labeled (ATT)3 and unlabeled (AAT)5 template assessed as number of base pairs at 50 uM
[8] = Stimulation of DNA triplet repeat slippage synthesis using p33-labeled (ATT)3 and unlabeled (AAT)5 template assessed as number of base pairs at 100 uM
[9] = Binding affinity to hairpin DNA by surface plasmon resonance based assay

Structure (SMILES)	Activity [1]	Activity [2]	Kd [3] [µM]	Ki [1] [µM]	Activity [4]	Activity [5]	Activity [6]	Activity [7]	Activity [8]	Kd [9] [µM]
c1ccc2c(c1)Nc1ccccc1S2	inactive	inactive	–	–	–	–	–	–	–	–
N[C@H]1[C@H](O[C@H]2C[C@H]3C(=O)c4cc5ccccc5cc4[C@H]3[C@@]23C(=O)CCc2ccccc23)O[C@H](CO)[C@@H](O)[C@@H]1O	–	Active	–	–	–	–	–	–	–	–
OC[C@H]1O[C@@H](OCCN2c3ccccc3Sc3ccccc32)[C@H](O)[C@@H](O)[C@@H]1O	–	–	170	41.5	inactive	71	32	18	20	140
